One experiment concerns DLD-1 BRCA2−/− cells. Kind of experiment: Homologous recombination synthetic lethal inhibition of proliferation, DLD-1 BRCA2-/- (Cell Titre Glo 3D). The experiment is classed as cell-based. The note with it: DLD-1 BRCA2-/- proliferation; column head only partly shown. A digest of the protocol: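 DLD-1 BRCA2−/− (3,000 cells/mL) and parental DLD-1 (1,500 cells/mL) cells in phenol red-free RPMI 1640 with 10% FBS were exposed to a 10-point, three-fold compound series from 10 μM to 0.51 nM at 37 °C, 5% CO2. Medium and compound were replenished on day 6. CellTiter-Glo 3D luminescence was read on day 7 (DLD-1) or day 12 (BRCA2−/−), and IC50 was taken as 50% reduction of maximum signal.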
On to `CC(CCOc1ccc(-c2nc3c(OC4(C)CC4)ncnc3n2Cc2cccc(F)c2F)c(Cl)c1)C(=O)O` (single isomer, unassigned) [Example T262, 4-(3-chloro-4-(9-(2,3-difluorobenzyl)-6-(1-methylcyclopropoxy)-9H-purin-8-yl)phenoxy)-2-methylbutanoic acid], for which the “POLQ PD Prolif Lumin” value is on record as 6.3.

Staying with this experiment, now noted: DLD-1 BRCA2 −/−, mean.
Take `COc1ccc(F)cc1Cn1c(-c2cccc(OCC(C)CC(=O)O)c2Cl)nc2c(OC3(C)CC3)ncnc21` (single isomer, unassigned) [Example U80, 4-(2-chloro-3-(9-(5-fluoro-2-methoxybenzyl)-6-(1-methylcyclopropoxy)-9H-purin-8-yl)phenoxy)-3-methylbutanoic acid]: the “POLQ PD Prolif Lumin BRCA2 −/− mean pIC50” value is 8.

The experiment is the same for the next values; noted with them: Homo sapiens, DLD-1, DLD-1 BRCA2-/- proliferation; column head only partly shown; read-out: POLQ PD Prolif Lumin (converted).
Take `Cc1ccnc(Cn2c(-c3ccc(C(=O)N4CCNC(=O)C4)cc3Cl)nc3c(OC4(C)CC4)ncnc32)c1` [Example T287, 4-(3-chloro-4-(6-(1-methylcyclopropoxy)-9-((4-methylpyridin-2-yl)methyl)-9H-purin-8-yl)benzoyl)piperazin-2-one]: the IC50 is above 7940 nM.

For `Cc1ccnc(Cn2c(-c3ccc(OCC(=O)N4CC(F)C4)cc3Cl)nc3c(OC4(C)CC4)ncnc32)c1` [Example T283, 2-(3-chloro-4-(6-(1-methylcyclopropoxy)-9-((4-methylpyridin-2-yl)methyl)-9H-purin-8-yl)phenoxy)-1-(3-fluoroazetidin-1-yl)ethan-1-one], the IC50 was 158 nM.

Staying with this experiment, now noted: Homo sapiens, DLD-1, DLD-1 BRCA2 −/− cells; mean; read-out: POLQ PD Prolif Lumin BRCA2 −/− mean pIC50 (converted).
Consider `Cc1cccc(Cn2c(-c3ccc(CC(N)=O)cc3Cl)nc3c(OC4(C)CC4)ncnc32)n1` [Example T59, 2-(3-chloro-4-(6-(1-methylcyclopropoxy)-9-((6-methylpyridin-2-yl)methyl)-9H-purin-8-yl)phenyl)acetamide], for which the IC50 is 2510 nM.

As for `CNC(=O)c1cccc(-c2nc3c(OC4(C)CC4)ncnc3n2Cc2cc(C)ccn2)c1Cl` [Example T55, 2-chloro-N-methyl-3-(6-(1-methylcyclopropoxy)-9-((4-methylpyridin-2-yl)methyl)-9H-purin-8-yl)benzamide], the IC50 was 631 nM.

As for `Cc1ccnc(Cn2c(-c3ccc(N)cc3Cl)nc3c(OC4(C)CC4)ncnc32)c1` [Example T3, 3-chloro-4-(6-(1-methylcyclopropoxy)-9-((4-methylpyridin-2-yl)methyl)-9H-purin-8-yl)aniline], the IC50 is 200 nM.

`CC1(Oc2ncnc3c2nc(-c2ccc(CC(N)=O)cc2Cl)n3CCc2cccc(Br)n2)CC1` [Example T46, 2-(4-(9-(2-(6-bromopyridin-2-yl)ethyl)-6-(1-methylcyclopropoxy)-9H-purin-8-yl)-3-chlorophenyl)acetamide]: the IC50 was above 10000 nM.

`Cc1ncc(Cn2c(-c3ccc(CC(N)=O)cc3Cl)nc3c(OC4(C)CC4)ncnc32)s1` [Example T5, 2-(3-chloro-4-(6-(1-methylcyclopropoxy)-9-((2-methylthiazol-5-yl)methyl)-9H-purin-8-yl)phenyl)acetamide]: the IC50 was above 7940 nM.

For `CC1(Oc2ncnc3c2nc(-c2ccc(CC(N)=O)cc2Cl)n3Cc2ccc(C#N)cc2)CC1` [Example T83, 2-(3-chloro-4-(9-(4-cyanobenzyl)-6-(1-methylcyclopropoxy)-9H-purin-8-yl)phenyl)acetamide], the IC50 is 7940 nM.

With `CNC(=O)c1ccc(Cl)c(-c2nc3c(OC4(C)CC4)ncnc3n2Cc2cc(C)ccn2)c1` [Example T54, 4-chloro-N-methyl-3-(6-(1-methylcyclopropoxy)-9-((4-methylpyridin-2-yl)methyl)-9H-purin-8-yl)benzamide], the IC50 is above 10000 nM.

With `CC1(Oc2ncnc3c2nc(-c2ccc(CC(N)=O)cc2Cl)n3Cc2ccc(C(F)(F)F)nc2)CC1` [Example T38, 2-(3-chloro-4-(6-(1-methylcyclopropoxy)-9-((6-(trifluoromethyl)pyridin-3-yl)methyl)-9H-purin-8-yl)phenyl)acetamide], the IC50 was 6310 nM.

Staying with this experiment, now noted: Homo sapiens, DLD-1, DLD-1 BRCA2 −/−, mean; read-out: POLQ PD Prolif Lumin BRCA2 −/− mean pIC50 (converted).
Take `CC1(Oc2ncnc3c2nc(-c2ccc(OCC4(CC(=O)O)CC4)cc2Cl)n3Cc2ccccc2C#N)CC1` [Example U15, 2-(1-((3-chloro-4-(9-(2-cyanobenzyl)-6-(1-methylcyclopropoxy)-9H-purin-8-yl)phenoxy)methyl)cyclopropyl)acetic acid]: the IC50 was 794 nM.

Staying with this experiment, now noted: Homo sapiens, DLD-1, first proliferation column (c5), taken as DLD-1 BRCA2-/-; read-out: POLQ PD Prolif Lumin (converted).
For `Cc1ccnc(Cn2c(-c3ccc(OCC(C)(C)CO)cc3Cl)nc3c(OC4(C)CC4)ncnc32)c1` [Example T383, 3-(3-chloro-4-(6-(1-methylcyclopropoxy)-9-((4-methylpyridin-2-yl)methyl)-9H-purin-8-yl)phenoxy)-2,2-dimethylpropan-1-ol], the IC50 was 126 nM.

With `Cc1ccnc(Cn2c(-c3ccc(OCCN4CCC4=O)cc3Cl)nc3c(OC4(C)CC4)ncnc32)c1` [Example T313, 1-(2-(3-chloro-4-(6-(1-methylcyclopropoxy)-9-((4-methylpyridin-2-yl)methyl)-9H-purin-8-yl)phenoxy)ethyl)azetidin-2-one], the IC50 was 200 nM.

Consider `Cc1ccnc(Cn2c(-c3ccc(OCCC4(O)COC4)cc3Cl)nc3c(OC4(C)CC4)ncnc32)c1` [Example T334, 3-(2-(3-chloro-4-(6-(1-methylcyclopropoxy)-9-((4-methylpyridin-2-yl)methyl)-9H-purin-8-yl)phenoxy)ethyl)oxetan-3-ol], for which the IC50 is 251 nM.

Turning to `Cc1ccnc(Cn2c(-c3ccc(C(=O)NC(C)(C)CO)cc3Cl)nc3c(OC4(C)CC4)ncnc32)c1` [Example T362, 3-chloro-N-(1-hydroxy-2-methylpropan-2-yl)-4-(6-(1-methylcyclopropoxy)-9-((4-methylpyridin-2-yl)methyl)-9H-purin-8-yl)benzamide], the IC50 is 631 nM.

The same experiment, now with this note: Homo sapiens, DLD-1, first proliferation column (c5); DLD-1 BRCA2-/-; read-out: POLQ PD Prolif Lumin (converted).
As for `Cc1ccnc(Cn2c(-c3ccc(C(=O)N4CC(F)C4)cc3Cl)nc3c(OC4(C)CC4)ncnc32)c1` [Example T153, (3-chloro-4-(6-(1-methylcyclopropoxy)-9-((4-methylpyridin-2-yl)methyl)-9H-purin-8-yl)phenyl)(3-fluoroazetidin-1-yl)methanone], the IC50 was 501 nM.

In the case of `Cc1ccnc(Cn2c(-c3ccc(OCC(=O)NCC(F)(F)F)cc3Cl)nc3c(OC4(C)CC4)ncnc32)c1` [Example T154, 2-(3-chloro-4-(6-(1-methylcyclopropoxy)-9-((4-methylpyridin-2-yl)methyl)-9H-purin-8-yl)phenoxy)-N-(2,2,2-trifluoroethyl)acetamide], the IC50 was 200 nM.

With `Cc1ccnc(Cn2c(-c3ccc(OCC(=O)NCC(C)(C)O)cc3Cl)nc3c(OC4(C)CC4)ncnc32)c1` [Example T517, 2-(3-chloro-4-(6-(1-methylcyclopropoxy)-9-((4-methylpyridin-2-yl)methyl)-9H-purin-8-yl)phenoxy)-N-(2-hydroxy-2-methylpropyl)acetamide], the IC50 was 398 nM.

For `CC[C@@H](O)CNC(=O)COc1ccc(-c2nc3c(OC4(C)CC4)ncnc3n2Cc2cc(C)ccn2)c(Cl)c1` [Example T520, (R)-2-(3-chloro-4-(6-(1-methylcyclopropoxy)-9-((4-methylpyridin-2-yl)methyl)-9H-purin-8-yl)phenoxy)-N-(2-hydroxybutyl)acetamide], the IC50 was 398 nM.

The same experiment, now with this note: Homo sapiens, DLD-1, first proliferation column; DLD-1 BRCA2-/-; read-out: POLQ PD Prolif Lumin (converted).
Regarding `CC(CCOc1ccc(-c2nc3c(OC4(C)CC4)ncnc3n2Cc2ccccc2C2CC2)c(Cl)c1)C(=O)O` (single isomer, unassigned) [Example T599, 4-(3-chloro-4-(9-(2-cyclopropylbenzyl)-6-(1-methylcyclopropoxy)-9H-purin-8-yl)phenoxy)-2-methylbutanoic acid], the IC50 is 631 nM.

Staying with this experiment, now noted: Homo sapiens, DLD-1, proliferation, luminescence, taken as DLD-1 BRCA2-/-; read-out: POLQ PD Prolif Lumin (converted).
As for `Cc1ccnc(Cn2c(-c3ccc(OC4CC5(COC5)C4)cc3Cl)nc3c(OC4(C)CC4)ncnc32)c1` [Example T426, 8-(4-((2-oxaspiro[3.3]heptan-6-yl)oxy)-2-chlorophenyl)-6-(1-methylcyclopropoxy)-9-((4-methylpyridin-2-yl)methyl)-9H-purine], the IC50 is 100 nM.

For `Cc1ccnc(Cn2c(-c3ccc(CC(=O)N4CC[C@@H](O)C4)cc3Cl)nc3c(OC4(C)CC4)ncnc32)c1` [Example T458, (R)-2-(3-chloro-4-(6-(1-methylcyclopropoxy)-9-((4-methylpyridin-2-yl)methyl)-9H-purin-8-yl)phenyl)-1-(3-hydroxypyrrolidin-1-yl)ethan-1-one], the IC50 is 631 nM.

With `Cc1ccnc(Cn2c(-c3ccc(C(=O)N4CCC[C@H](F)C4)cc3Cl)nc3c(OC4(C)CC4)ncnc32)c1` [Example T418, (S)-(3-chloro-4-(6-(1-methylcyclopropoxy)-9-((4-methylpyridin-2-yl)methyl)-9H-purin-8-yl)phenyl)(3-fluoropiperidin-1-yl)methanone], the IC50 was 631 nM.

`Cc1ccnc(Cn2c(-c3ccc(C(=O)N4CCC[C@H](O)C4)cc3Cl)nc3c(OC4(C)CC4)ncnc32)c1` [Example T461, (S)-(3-chloro-4-(6-(1-methylcyclopropoxy)-9-((4-methylpyridin-2-yl)methyl)-9H-purin-8-yl)phenyl)(3-hydroxypiperidin-1-yl)methanone]: the IC50 is 1260 nM.

In the case of `CCC(=O)N1CC(Oc2ccc(-c3nc4c(OC5(C)CC5)ncnc4n3Cc3cc(C)ccn3)c(Cl)c2)C1` [Example T471, 1-(3-(3-chloro-4-(6-(1-methylcyclopropoxy)-9-((4-methylpyridin-2-yl)methyl)-9H-purin-8-yl)phenoxy)azetidin-1-yl)propan-1-one], the IC50 is 158 nM.
